According to ChEMBL document CHEMBL1201861, “Genomics of Drug Sensitity in Cancer screening data, Wellcome Trust Sanger Institute”:
pIC50: −log10 of the molar value.

Key:
Test in all cases: cells
COLO-824 = assay type: functional, cell-based, Homo sapiens; conditions: Homo sapiens, COLO-824
Description: SANGER: Inhibition of human COLO-824 cell growth in a cell viability assay.

D-247MG = assay type: functional, cell-based, Homo sapiens; conditions: Homo sapiens, D-247MG
Description: SANGER: Inhibition of human D-247MG cell growth in a cell viability assay.

DMS-114 = assay type: functional, cell-based, Homo sapiens; conditions: Homo sapiens, DMS-114
EFM-19 = assay type: functional, cell-based, Homo sapiens; conditions: Homo sapiens, EFM-19;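 also: growth inhibition of human EFM-19 cells, measured in a cell viability assay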
Description: SANGER: Inhibition of human EFM-19 cell growth in a cell viability assay.

EW-16 = assay type: functional, cell-based, Homo sapiens; conditions: Homo sapiens, EW-16;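 also: growth inhibition of human EW-16 cells, read out as cell viability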
Description: SANGER: Inhibition of human EW-16 cell growth in a cell viability assay.

GAMG = assay type: functional, cell-based, Homo sapiens; conditions: Homo sapiens, GAMG;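 also: cell growth inhibition measured by a viability assay in the GAMG human cell line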
Description: SANGER: Inhibition of human GAMG cell growth in a cell viability assay.

GB-1 = assay type: functional, cell-based, Homo sapiens; conditions: Homo sapiens, GB-1;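 also: growth of GB-1 cells judged by a viability assay, IC50 marks the concentration inhibiting growth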
Description: SANGER: Inhibition of human GB-1 cell growth in a cell viability assay.

GP5d = assay type: functional, cell-based, Homo sapiens; conditions: Homo sapiens, GP5d;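 also: growth inhibition of human GP5d cells, read out with a cell viability assay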
Description: SANGER: Inhibition of human GP5d cell growth in a cell viability assay.

HSC-2 = assay type: functional, cell-based, Homo sapiens; conditions: Homo sapiens, HSC-2;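 also: growth inhibition of human HSC-2 cells, read out by a cell viability assay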
Description: SANGER: Inhibition of human HSC-2 cell growth in a cell viability assay.

HSC-3 = assay type: functional, cell-based, Homo sapiens; conditions: Homo sapiens, HSC-3
Description: SANGER: Inhibition of human HSC-3 cell growth in a cell viability assay.

HT-1376 = assay type: functional, cell-based, Homo sapiens; conditions: Homo sapiens, HT-1376
Description: SANGER: Inhibition of human HT-1376 cell growth in a cell viability assay.

IGR-1 = assay type: functional, cell-based, Homo sapiens; conditions: Homo sapiens, IGR-1;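 also: growth inhibition of human IGR-1 cells, read out with a cell viability assay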
Description: SANGER: Inhibition of human IGR-1 cell growth in a cell viability assay.

JVM-2 = assay type: functional, cell-based; conditions: Homo sapiens;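 also: growth inhibition of JVM-2 cells determined by a cell viability assay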
Description: SANGER: Inhibition of human JVM-2 cell growth in a cell viability assay.

KYSE-180 = assay type: functional, cell-based, Homo sapiens; conditions: Homo sapiens, KYSE-180;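 also: growth inhibition of KYSE-180 cells, read out with a cell viability assay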
Description: SANGER: Inhibition of human KYSE-180 cell growth in a cell viability assay.

KYSE-510 = assay type: functional, cell-based, Homo sapiens; conditions: Homo sapiens, KYSE-510;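 also: cell viability readout used to measure how strongly growth of the cell line is suppressed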
Description: SANGER: Inhibition of human KYSE-510 cell growth in a cell viability assay.

LB1047-RCC = assay type: functional, cell-based, Homo sapiens; conditions: Homo sapiens, LB1047-RCC;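 also: inhibition of cell growth, determined with a cell viability assay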
Description: SANGER: Inhibition of human LB1047-RCC cell growth in a cell viability assay.

LS-411N = assay type: functional, cell-based, Homo sapiens; conditions: Homo sapiens, LS-411N
M059J = assay type: functional, cell-based, Homo sapiens; conditions: Homo sapiens, M059J;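 also: growth inhibition of M059J cells, read out with a cell viability assay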
Description: SANGER: Inhibition of human M059J cell growth in a cell viability assay.

MHH-ES-1 = assay type: functional, cell-based, Homo sapiens; conditions: Homo sapiens, MHH-ES-1;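 also: cell growth inhibition measured by a cell viability assay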
Description: SANGER: Inhibition of human MHH-ES-1 cell growth in a cell viability assay.

MLMA = assay type: functional, cell-based, Homo sapiens; conditions: Homo sapiens, MLMA;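 also: growth inhibition of MLMA cells (human), determined through a cell viability readout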
Description: SANGER: Inhibition of human MLMA cell growth in a cell viability assay.

MS-1 = assay type: functional, cell-based; conditions: Homo sapiens
Description: SANGER: Inhibition of human MS-1 cell growth in a cell viability assay.

MeWo = assay type: functional, cell-based, Homo sapiens; conditions: Homo sapiens, MeWo;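 also: growth inhibition of MeWo cells, determined by a cell viability readout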
Description: SANGER: Inhibition of human Mewo cell growth in a cell viability assay.

NB13 = assay type: functional, cell-based, Homo sapiens; conditions: Homo sapiens, NB13;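 also: cell viability readout measuring growth inhibition of human NB13 cells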
Description: SANGER: Inhibition of human NB13 cell growth in a cell viability assay.

NB6 = assay type: functional, cell-based, Homo sapiens; conditions: Homo sapiens, NB6;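 also: growth inhibition of NB6 cells, read out by a cell viability assay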
Description: SANGER: Inhibition of human NB6 cell growth in a cell viability assay.

NCI-H1299 = assay type: functional, cell-based, Homo sapiens; conditions: Homo sapiens, NCI-H1299;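 also: growth inhibition of human NCI-H1299 cells, read out by a cell viability assay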
Description: SANGER: Inhibition of human NCI-H1299 cell growth in a cell viability assay.

NCI-H1993 = assay type: functional, cell-based, Homo sapiens; conditions: Homo sapiens, NCI-H1993;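 also: growth inhibition of the cancer cell line, assessed with a cell viability assay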
Description: SANGER: Inhibition of human NCI-H1993 cell growth in a cell viability assay.

NCI-H2030 = assay type: functional, cell-based, Homo sapiens; conditions: Homo sapiens, NCI-H2030;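 also: growth inhibition of human NCI-H2030 cells, read out by a cell viability assay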
Description: SANGER: Inhibition of human NCI-H2030 cell growth in a cell viability assay.

NCI-H2170 = assay type: functional, cell-based, Homo sapiens; conditions: Homo sapiens, NCI-H2170;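 also: cell viability assay measuring growth inhibition of human NCI-H2170 cancer cells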
Description: SANGER: Inhibition of human NCI-H2170 cell growth in a cell viability assay.

NCI-H226 = assay type: functional, cell-based, Homo sapiens; conditions: Homo sapiens, NCI-H226;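 also: cell viability read-out used to gauge growth inhibition of the cells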
Description: SANGER: Inhibition of human NCI-H226 cell growth in a cell viability assay.

NCI-H2342 = assay type: functional, cell-based; conditions: Homo sapiens;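 also: growth inhibition of the cancer cell line, determined with a cell viability assay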
Description: SANGER: Inhibition of human NCI-H2342 cell growth in a cell viability assay.

NCI-H2452 = assay type: functional, cell-based, Homo sapiens; conditions: Homo sapiens, NCI-H2452;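 also: growth inhibition of NCI-H2452 cells, read out with a cell viability assay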
Description: SANGER: Inhibition of human NCI-H2452 cell growth in a cell viability assay.

NCI-H727 = assay type: functional, cell-based, Homo sapiens; conditions: Homo sapiens, NCI-H727;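 also: growth inhibition of human NCI-H727 cells, read out with a cell viability assay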
Description: SANGER: Inhibition of human NCI-H727 cell growth in a cell viability assay.

NOS-1 = assay type: functional, cell-based, Homo sapiens; conditions: Homo sapiens, NOS-1;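 also: growth inhibition of the human NOS-1 cell line, read out with a cell viability assay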
Description: SANGER: Inhibition of human NOS-1 cell growth in a cell viability assay.

RCC10RGB = assay type: functional, cell-based, Homo sapiens; conditions: Homo sapiens, RCC10RGB;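 also: growth inhibition of human RCC10RGB cells, read out by a cell viability assay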
Description: SANGER: Inhibition of human RCC10RGB cell growth in a cell viability assay.

RO82-W-1 = assay type: functional, cell-based, Homo sapiens; conditions: Homo sapiens, RO82-W-1;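 also: growth inhibition of human RO82-W-1 cells, measured with a cell viability assay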
Description: SANGER: Inhibition of human RO82-W-1 cell growth in a cell viability assay.

SK-LU-1 = assay type: functional, cell-based, Homo sapiens; conditions: Homo sapiens, SK-LU-1;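 also: cell viability assay measuring growth inhibition of human SK-LU-1 cells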
Description: SANGER: Inhibition of human SK-LU-1 cell growth in a cell viability assay.

SNB-75 = assay type: functional, cell-based, Homo sapiens; conditions: Homo sapiens, SNB-75;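 also: cell viability assay measuring growth inhibition of human SNB-75 cells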
Description: SANGER: Inhibition of human SNB75 cell growth in a cell viability assay.

SW1710 = assay type: functional, cell-based, Homo sapiens; conditions: Homo sapiens, SW1710;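 also: growth inhibition of SW1710 cells, determined with a cell viability assay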
Description: SANGER: Inhibition of human SW1710 cell growth in a cell viability assay.

SW1783 = assay type: functional, cell-based; conditions: Homo sapiens;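 also: cell growth inhibition measured with a viability assay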
Description: SANGER: Inhibition of human SW1783 cell growth in a cell viability assay.

SW684 = assay type: functional, cell-based, Homo sapiens; conditions: Homo sapiens, SW684;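 also: growth inhibition of human SW684 cells, measured by a cell viability assay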
Description: SANGER: Inhibition of human SW684 cell growth in a cell viability assay.

T47D = assay type: functional, cell-based, Homo sapiens; conditions: Homo sapiens, T47D;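 also: growth inhibition of human T47D cells, measured with a cell viability assay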
Description: SANGER: Inhibition of human T47D cell growth in a cell viability assay.

769-P = assay type: functional, cell-based, Homo sapiens; conditions: Homo sapiens, 769-P
Description: SANGER: Inhibition of human 769-P cell growth in a cell viability assay.

A101D = assay type: functional, cell-based, Homo sapiens; conditions: Homo sapiens, A101D;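 also: growth inhibition of the cell line, measured with a viability assay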
Description: SANGER: Inhibition of human A101D cell growth in a cell viability assay.

A253 cell line = assay type: functional, cell-based, Homo sapiens; conditions: Homo sapiens, A253;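 also: growth inhibition of A253 cells, read out with a cell viability assay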
Description: SANGER: Inhibition of human A253 cell growth in a cell viability assay.

A-375 = assay type: functional, cell-based, Homo sapiens; conditions: Homo sapiens, A-375;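 also: growth inhibition of A375 cells, read out with a cell viability assay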
Description: SANGER: Inhibition of human A375 cell growth in a cell viability assay.

A388 = assay type: functional, cell-based, Homo sapiens; conditions: Homo sapiens, A388;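 also: growth inhibition of human A388 cells, read out with a cell viability assay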
Description: SANGER: Inhibition of human A388 cell growth in a cell viability assay.

AU565 = assay type: functional, cell-based, Homo sapiens; conditions: Homo sapiens, AU565;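 also: cell viability assay measuring growth inhibition of human AU565 cells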
Description: SANGER: Inhibition of human AU565 cell growth in a cell viability assay.

C8166 = assay type: functional, cell-based; conditions: Homo sapiens;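 also: growth inhibition of human C8166 cells measured by a cell viability assay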
Description: SANGER: Inhibition of human C8166 cell growth in a cell viability assay.

UACC-893 = assay type: functional, cell-based, Homo sapiens; conditions: Homo sapiens, UACC-893
Description: SANGER: Inhibition of human UACC-893 cell growth in a cell viability assay.

UMC-11 = assay type: functional, cell-based, Homo sapiens; conditions: Homo sapiens, UMC-11;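 also: growth inhibition of UMC-11 cells, read out with a cell viability assay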
Description: SANGER: Inhibition of human UMC-11 cell growth in a cell viability assay.

CCC1=C[C@@H]2CN(C1)Cc1c([nH]c3ccccc13)[C@@](C(=O)OC)(c1cc3c(cc1OC)N(C)[C@H]1[C@@](O)(C(=O)OC)[C@H](OC(C)=O)[C@]4(CC)C=CCN5CC[C@]31[C@@H]54)C2 [VINORELBINE]
pIC50 (COLO-824): 7.33 | pIC50 (D-247MG): 7.90 | pIC50 (DMS-114): < 7.19 | pIC50 (EFM-19): 8.22 | pIC50 (EW-16): 8.36 | pIC50 (GAMG): 7.89 | pIC50 (GB-1): < 7.19 | pIC50 (GP5d): 8.11 | pIC50 (HSC-2): 8.65 | pIC50 (HSC-3): 8.25 | pIC50 (HT-1376): 7.50 | pIC50 (IGR-1): 8.72 | pIC50 (JVM-2): < 7.19 | pIC50 (KYSE-180): 8.15 | pIC50 (KYSE-510): 8.38 | pIC50 (LB1047-RCC): < 7.19 | pIC50 (LS-411N): 8.50 | pIC50 (M059J): 7.85 | pIC50 (MHH-ES-1): 8.41 | pIC50 (MLMA): 7.43 | pIC50 (MS-1): < 7.19 | pIC50 (MeWo): 7.82 | pIC50 (NB13): 8.30 | pIC50 (NB6): < 7.19 | pIC50 (NCI-H1299): 7.87 | pIC50 (NCI-H1993): < 7.19 | pIC50 (NCI-H2030): 8.44 | pIC50 (NCI-H2170): 7.94 | pIC50 (NCI-H226): 7.60 | pIC50 (NCI-H2342): 8.32 | pIC50 (NCI-H2452): < 7.19 | pIC50 (NCI-H727): < 7.19 | pIC50 (NOS-1): 7.38 | pIC50 (RCC10RGB): < 7.19 | pIC50 (RO82-W-1): < 7.19 | pIC50 (SK-LU-1): 7.29 | pIC50 (SNB-75): 7.90 | pIC50 (SW1710): 8.63 | pIC50 (SW1783): < 7.19 | pIC50 (SW684): 7.62 | pIC50 (T47D): < 7.19 | pIC50 (769-P): 7.77 | pIC50 (A101D): 8.06 | pIC50 (A253 cell line): 8.91 | pIC50 (A-375): 7.42 | pIC50 (A388): 8.22 | pIC50 (AU565): 8.09 | pIC50 (C8166): 7.76 | pIC50 (UACC-893): < 7.19 | pIC50 (UMC-11): < 7.19

COc1cc([C@@H]2c3cc4c(cc3[C@@H](O[C@@H]3O[C@@H]5CO[C@@H](C)O[C@H]5[C@H](O)[C@H]3O)[C@H]3COC(=O)[C@H]23)OCO4)cc(OC)c1O [ETOPOSIDE]
pIC50 (COLO-824): < 4.80 | pIC50 (D-247MG): < 4.80 | pIC50 (DMS-114): < 4.80 | pIC50 (EFM-19): 6.06 | pIC50 (EW-16): 7.67 | pIC50 (GAMG): 5.58 | pIC50 (GB-1): 5.79 | pIC50 (GP5d): 5.23 | pIC50 (HSC-2): 6.15 | pIC50 (HSC-3): 5.84 | pIC50 (HT-1376): 5.24 | pIC50 (IGR-1): 5.80 | pIC50 (JVM-2): < 4.80 | pIC50 (KYSE-180): 5.68 | pIC50 (KYSE-510): 6.25 | pIC50 (LB1047-RCC): 5.67 | pIC50 (LS-411N): 6.03 | pIC50 (M059J): 6.44 | pIC50 (MHH-ES-1): 6.33 | pIC50 (MLMA): 5.47 | pIC50 (MS-1): 5.25 | pIC50 (MeWo): 5.17 | pIC50 (NB13): 5.56 | pIC50 (NB6): < 4.80 | pIC50 (NCI-H1299): 5.68 | pIC50 (NCI-H1993): < 4.80 | pIC50 (NCI-H2030): 6.64 | pIC50 (NCI-H2170): 5.73 | pIC50 (NCI-H226): 4.95 | pIC50 (NCI-H2342): 6.26 | pIC50 (NCI-H2452): < 4.80 | pIC50 (NCI-H727): < 4.80 | pIC50 (NOS-1): 5.45 | pIC50 (RCC10RGB): < 4.80 | pIC50 (RO82-W-1): < 4.80 | pIC50 (SK-LU-1): 5.89 | pIC50 (SNB-75): 4.96 | pIC50 (SW1710): 6.29 | pIC50 (SW1783): 5.51 | pIC50 (SW684): < 4.80 | pIC50 (T47D): 4.93 | pIC50 (769-P): 5.65 | pIC50 (A101D): 5.92 | pIC50 (A253 cell line): 7.73 | pIC50 (A-375): 6.20 | pIC50 (A388): 5.48 | pIC50 (AU565): 5.58 | pIC50 (C8166): 5.78 | pIC50 (UACC-893): < 4.80 | pIC50 (UMC-11): < 4.80
